Test results published in patent publication US20030165486A1, “Compositions and methods for the induction of retinal detachments” (priority 1999, published 2003).
Like-named read-outs stand apart in the source and are kept apart here.

Assays:
[1] = test system: eyes of rabbits
Procedure: Fifty-two (52) healthy rabbits of the New Zealand Cross variety (26 male, 26 female) weighing 1.5 kg to 2.5 kg were individually marked for identification and were housed individually in suspended cages. The animals received a commercially available pelleted rabbit feed on a daily basis, with tap water available ad libitum.
Two animals in each group (1 male, 1 female) were selected for pretreatment fundus photography and fluorescein angiography.
The fundus photography was performed by restraining the animals and visualizing the optic nerve, retinal arcades and fundus with a KOWA® RC-3 Fundus Camera loaded with Kodak Gold 200 ASA film.
The fluorescein angiography involved a 1.5-ml injection of 2% sterile fluorescein solution via the marginal ear vein. Approximately 30 seconds post-injection the fluorescein was visualized upon localization of the optic nerve, retinal vessels and fundus.
The following day, each animal was anesthetized by intravenous administration of a combination of 34 mg/kg of ketamine hydrochloride and 5-mg/kg xylazine. The eyelids were retracted using a lid speculum, and the eyes were disinfected with an iodine-povidone wash.
The experimental treatments administered to each animal group were as follows:
The day following the injections (Day 1) the 26 animals, which were subjected to the fundus photography and fluorescein angiography, were observed using the same methods as for the pre-dose examination.
Alternatively, one randomly selected rabbit was euthanized by pentobarbital injection but then fixed by intracardiac injection of the gluteraldehyde solution into the left ventricle to determine the effect of the fixation procedure on the histology findings within the enucleated eyes.
On Day 7, the 13 female rabbits that had been previously photographed and angiography performed were subjected to same observations following the methods previously described.
The remaining 26 animals were euthanized as described above 7 days after dosing. The eyes were fixed in the same manner as those, which had been fixed on day 2. […]

[2] = test system: retina of rabbit eyes; type: in vivo; conditions: for Electro Retinography Results / Histological and Electron Microscopic Results / Retinal Detachment at 48 hours Post 2nd Injection / Retinal Reattachment at 3 weeks Post 2nd Injection: 50 μl of 75 I.U. hyaluronidase intravitreally, 3 days later 50 μl sterile PEG, n = 6; for Retinal Detachment at 48 hours Post 2nd Injection / Retinal Reattachment at 3 weeks Post 2nd Injection: fundus photos, β scans; for safety by indirect ophthalmoscopy, fundus photography, light and electron microscopy and electroretinography: intravitreal hyaluronidase followed by intravitreal PEG
Procedure: In this study, 12-pigmented rabbits were divided into 2 groups of 6 animals each. Group I consisted of six animals that were injected OD with PEG 300. […] As a control, these same animals received saline injections OS and thus served as a control group (Group Ia).
Group II consisted of six animals that were injected that were injected OD with PEG 400. […] As a control, these same animals received saline injections OS and thus served as a control group (Group IIa).
During this procedure a number of ophthalmic methodologies were utilized to monitor the effects and progress of the various experimental treatments. For example, indirect ophthalmoscopy was utilized by a retinal specialist to determine the effects of administering a retinal detaching dose of the compounds disclosed. […] Light microscopy and electron microscopy of eye samples was used to determine the effect of the treatments from a histological perspective. Ultrasonography techniques were used to objectively determine the presence of retinal detachment. Additionally, electroretinography was performed to determine changes due to treatment.

[3] = test system: detached retinas of cats; test: Protection of surgically detached retina from degeneration in adult cats (Example 6); type: in vivo, adult cats (Felis domesticus); conditions: 100 μl of Table 5 formulation 6 hours after detachment, 3 days
Procedure: The study is performed on 15 adult cats (Felis domesticus) and modeled generally on the study of Mervin, et al., “Limiting Photoreceptor Death and Deconstruction During Experimental Retinal Detachment: The Value of Oxygen Supplementation,” Am. J. Ophthal. 128:155-164 (1999). Unlike the Mervin study however, the present experiment examines the effect of hyaluronidase administration to prevent photoreceptor death rather than the effect of supplemental oxygen administration.
Three groups of five adult domestic cats (Experimental Group I, Experimental Group II, and Control Group I) are anesthetized using 10 mg/kg of xylazine (Boehringer Ingelheim Vetmedica, Inc., St. Joseph, Mo.) and 50 mg/kg of ketamine (Sigma, St. Louis, Mo.). The surgical method of Anderson, et al., (Invest. Ophthalmol. Vis. Sci. 27:168-183 (1986)) is used to induce retinal detachment in two experimental groups of 5 cats each, however, the lens and vitreous of these cats are left in place during the surgical procedure.
During the procedure, a glass micropipette is introduced through a 20-gauge hole in the sclera at the region of the pars plana. A balanced salt solution (BSS) containing 0.25% sodium hyaluronate is then infused between the neural retina and retinal pigment epithelium. A single detachment is produced in the right eye of each of the 10 cats.
The experimental groups are allowed to recover for six hours. […]

[4] = test system: retina of rabbit eyes; test: Induction of reversible retinal detachment in rabbits using varying concentration of PEG 300 (Example 5); type: in vivo
Procedure: In this study, 8-pigmented rabbits were divided into 4 groups of 2 animals each. Group I consisted of 2 animals treated with 100% PEG 300. As performed in Example 1, these animals were first injected intravitreally (OD) with 50 μl of 75 I.U. of Hyaluronidase solution (Group I). Fourteen days after the first injection these animals received 50 μl of 100% sterile PEG 300 intravitreally. The OS eye was used as the untreated control as described in Example 1 (Group Ia). A second group of two animals, Group II, was first injected intravitreally (OD) with 50 μl of 75 I.U. of Hyaluronidase solution and then injected 14 days later with 50 μl of sterile 75% solution of PEG 300 intravitreally. The OS eyes of these animals were used as the untreated controls (Group IIa). […] were treated according to the same protocols as described for Groups I, Ia, II, and IIa with the exception that Group III received 50 μl of 50% sterile solution of PEG 300 intravitreally. Similarly, Groups IV and IVa were treated according to the same protocols as described above, however, Group IV received 50 μl of 25% sterile solution of PEG 300 intravitreally.
All retinal detachments and retinal re-attachments were documented using Fundus Photography and Ultrasonography (β-Scan). In addition, 3 rabbit eyes were enucleated and the eyes were prepared for light microscopy as well as for Electron Microscopy.

[5] = 75 I.U. hyaluronidase, 14 days later varying concentrations of PEG 300
[6] = Groups I-IV OD: 75 I.U. hyaluronidase, 14 days later 50 μl sterile 100%, 75%, 50% or 25% PEG 300, fundus photos, β scans

Molecule	treatment-related toxicities, eyes examined grossly and microscopically ([1]; Group 2, BSS+thimerosal 0.0075 mg, day 2)	treatment-related toxicities, eyes examined grossly and microscopically ([1]; Group 2, BSS+thimerosal 0.0075 mg, day 7)	treatment-related toxicities, eyes examined grossly and microscopically ([1]; Group 3, BSS+thimerosal 0.025 mg, day 2 and 7 post dose)	Electro Retinography Results [2]	Histological and Electron Microscopic Results [2]	Retinal Detachment at 48 hours Post 2nd Injection [2]	Retinal Reattachment at 3 weeks Post 2nd Injection [2]	safety by indirect ophthalmoscopy, fundus photography, light and electron microscopy and electroretinography [2]	thickness of the outer nuclear layer after retinal detachment surgery [3]	time to induced retinal detachment after second intravitreal injection [4, 5] [h]	time to spontaneous retinal re-attachment after the PEG injection [4, 5] [weeks]	Retinal Detachment At 48 hours Post 2nd Injection [4, 6]	Retinal Reattachment At 3 weeks Post 2nd Injection [4, 6]	Histological and Electron Microscopic Results ([4]; Groups I-IV OD: 100%, 75%, 50% or 25% PEG 300, 3 enucleated eyes)	Electro Retinography Results ([4]; Groups I-IV OD: 100%, 75%, 50% or 25% PEG 300, after retinal detachment and spontaneous re-attachment 3 weeks later)	safety / toxicity of intravitreal injection ([4]; hyaluronidase followed by PEG 300 at 100%, 75%, 50% and 25% in saline vehicle)
C[CH2][Hg][S]c1ccccc1C(=O)[O-].[Na+] [thimerosal]	free of toxicity	breakdown of the blood retinal barrier	severe treatment-related toxic effects													
Polyethylene Glycol 300 [PEG 300]				Normal	Normal	All	All	safe and without causing any toxicity	Thinning of the outer nuclear layer is observed	≤ 48	≤ 3	All	All	No Adverse	No Adverse	safe and without causing any toxicity
Polyethylene Glycol 400 [PEG 400]				Normal	Normal	All	All	safe and without causing any toxicity								
